The record followed here is article PMC8201173, “Inhibition of Carbonic Anhydrase IX Promotes Apoptosis through Intracellular pH Level Alterations in Cervical Cancer Cells” (International Journal of Molecular Sciences, 2021).

Holding throughout (type): cell-based
The subject of test [1] is HEK-293. The test can be described thus: WST-1 cytotoxicity assay, HEK-293. The conditions noted are these: Homo sapiens. On the procedure: (§1) We used cancer and normal cell lines purchased from ATCC (American Type Culture Collection) and ECACC (European Collection of Authenticated Cell Cultures) and stored in liquid nitrogen. HT-29 (ATCC: HTB-38, colon adenoma cancer), HeLa (ATCC: CCL-2, cervix adenoma cancer cell), MDA-MB-231 (ATCC: HTB-26, breast adenoma cancer cell), and HEK-293 (ATCC: CRL-1573, embryonic kidney epithelial cell) cell lines were incubated in DMEM-F12 (Sigma-Aldrich, Germany), including 10% Fetal Bovine Serum (FBS), 100 μg/mL streptomycin/100 IU/mL penicillin, at 37 °C in an incubator containing 5% CO2, 95% air in a humid atmosphere. PNT-1A (ECACC: 95012614, normal prostate cells) cell line was incubated in RPMI-1640 medium, including %10 FBS, 100 μg/mL streptomycin/100 IU/mL penicillin, at 37 °C in an incubator containing 5% CO2, 95% air in a humid atmosphere.
(§2) The cytotoxic effects of compound E were evaluated with WST kit (Roche, Basel, Switzerland) in accordance with manufacturer protocols. The cells were planted in 96 well plates (10^4 cells per well). After 24 h of incubation, compound E at doses of 0, 2.5, 5, 10, 25, 50, 100, and 200 μM was administrated on the cell lines for 24, 48, and 72 h, and 5-FU on the control cell line with the same doses. WST-1 reactive of 10 µL was added in all wells. Following 4 h incubation, the measurements were carried out in a plate reader (Spectramax M5, BioTek, VT, USA) at wavelengths of 450 and 630 nm. Consequently, graphs were created, and the IC50 values of compound E and 5-fluorouracil were calculated. Selectivity index (SI) can be defined as the ratio of the toxic concentration of a sample against its effective compound concentration.
For orientation: Tetrazolium dyes change colour on reduction, which living cells bring about.

The test system of test [2] is PNT1-A. The test can be described thus: WST-1 cytotoxicity assay, PNT1-A. The conditions noted are these: Homo sapiens, PNT1A. As to the method:
as §1, §2

Test [3] deals with MDA-MB-231. The experiment in a line: WST-1 cytotoxicity assay, MDA-MB-231. The conditions noted are these: Homo sapiens. As to the method:
(§3) We used cancer and normal cell lines purchased from ATCC (American Type Culture Collection) and ECACC (European Collection of Authenticated Cell Cultures) and stored in liquid nitrogen.
(§4) The cells were planted in 96 well plates (10^4 cells per well). […] WST-1 reactive of 10 µL was added in all wells. Following 4 h incubation, the measurements were carried out in a plate reader (Spectramax M5, BioTek, VT, USA) at wavelengths of 450 and 630 nm.

The test system of test [4] is HT-29. The experiment in a line: WST-1 cytotoxicity assay, HT-29. As to conditions: Homo sapiens. On the procedure:
as §3, §4

For test [5], the system named is HeLa cells. The experiment in a line: WST-1 cytotoxicity assay, HeLa. As to conditions: Homo sapiens. On the procedure:
as §3, §4

The IC50 is the midpoint of a concentration-inhibition curve. As for `O=c1[nH]cc(F)c(=O)[nH]1` [5-FU, 5-Fluorouracil, reference compound], the IC50 was 44.6 ± 7.2 µM in test [1] (HEK293, HEK-293, 24 h); 19.8 ± 2.3 µM in test [1] (HEK293, HEK-293, 48 h); 14.5 ± 3.2 µM in test [1] (HEK293, HEK-293, 72 h); 23.1 ± 4.55 µM in test [2] (24 h); 21.2 ± 2.2 µM in test [2] (48 h); 17.5 ± 7.6 µM in test [2] (72 h). Further, the IC50 was found to be 42.6 ± 2.56 µM in test [3] (MDA-MB-231, 24 h); 37.9 ± 12.3 µM in test [3] (MDA-MB-231, 48 h); 21 ± 4.3 µM in test [3] (MDA-MB-231, 72 h); 47.3 ± 1.2 µM in test [4] (HT-29, 24 h); 23.4 ± 2.1 µM in test [4] (HT-29, 48 h); 19.3 ± 1.2 µM in test [4] (HT-29, 72 h). In addition, the IC50 in test [5] (24 h) turned out to be 37.8 ± 4.3 µM; in test [5] (48 h), 31.2 ± 2.3 µM; in test [5] (72 h) it was 14.7 ± 0.6 µM.
